Measurements from patent US8895571B2, “Isoindolinone and pyrrolopyridinone derivatives as Akt inhibitors” (Incyte Corporation, priority 2011, dated 2014).

Assays:
Full length Akt2 = molecular target: T1, Full length Akt2 (Homo sapiens, UniProt P31751); assay: In vitro Akt kinase enzymatic assay (HTRF), Akt2; type: biochemical; conditions: 0.6 nM Akt2, substrate solution with 5 mM ATP, 25° C. 1 hr
T1 construct: Full length Akt1 (cat #P2999), Akt2 (cat #PV3184); purchased PerkinElmer PV3184
Outline: (§1)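 Full-length enzyme (0.4 nM Akt1 or 0.6 nM Akt2/Akt3 in the enzyme solution) was combined with a substrate solution of 0.1 μM ULight-Crosstide plus 5 mM ATP in pH 7.8 HEPES/MgCl2/DTT/Tween20 buffer and reacted 1 hr at 25° C. The EDTA stop contained Eu anti-phospho-Crosstide; IC50 was fitted from 11-point HTRF inhibition curves.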

[1] = test system: LNCaP cells (human prostate tumor cell line); assay: Akt LNCaP proliferation assay (MTS); type: cell-based; conditions: 48 hours
Procedure: LNCaP cells (human prostate tumor cell line) were plated in 96 well plates (COSTAR, Corning, N.Y.) in 50 μL at 10,000 cells/well in RPMI (Media Tech, Manassas, Va.), 2% fetal bovine serum (Hyclone/Thermo, Logan, Utah) and incubated overnight at 37° C., 5% CO2. […] of compound solution were added at final concentrations of 1000 nM to 0.5 nM in 3 fold dilutions for IC50 determination and plates further incubated for 48 hours. 100 μL of Cell Titer 96® Aqueous reagent, from an MTS colorimetric method for determining the number of viable cells in proliferation (Cell titer 96, Promega, Madison, Wis.) was added for 2 hours at 37° C., 5% CO2. Each plate was mixed well and read on a SpectroMax M5 automated plate reader (Molecular Devices, Sunnyvale Calif.). The ability of the compound to inhibit proliferation was reported as the inhibitor concentration required for 50% inhibition (IC50 values) of total cell proliferation. See Table 8 for data related to compounds of the examples.

Full length Akt3 = molecular target: T2, Full length Akt3 (Homo sapiens, UniProt Q9Y243); assay: In vitro Akt kinase enzymatic assay (HTRF), Akt3; type: biochemical; conditions: 0.6 nM Akt3, substrate solution with 5 mM ATP, 25° C. 1 hr
T2 construct: Full length Akt1 (cat #P2999), Akt2 (cat #PV3184), Akt3 (cat #PV3185); purchased PerkinElmer PV3185
T2 sequence (Q9Y243 whole entry): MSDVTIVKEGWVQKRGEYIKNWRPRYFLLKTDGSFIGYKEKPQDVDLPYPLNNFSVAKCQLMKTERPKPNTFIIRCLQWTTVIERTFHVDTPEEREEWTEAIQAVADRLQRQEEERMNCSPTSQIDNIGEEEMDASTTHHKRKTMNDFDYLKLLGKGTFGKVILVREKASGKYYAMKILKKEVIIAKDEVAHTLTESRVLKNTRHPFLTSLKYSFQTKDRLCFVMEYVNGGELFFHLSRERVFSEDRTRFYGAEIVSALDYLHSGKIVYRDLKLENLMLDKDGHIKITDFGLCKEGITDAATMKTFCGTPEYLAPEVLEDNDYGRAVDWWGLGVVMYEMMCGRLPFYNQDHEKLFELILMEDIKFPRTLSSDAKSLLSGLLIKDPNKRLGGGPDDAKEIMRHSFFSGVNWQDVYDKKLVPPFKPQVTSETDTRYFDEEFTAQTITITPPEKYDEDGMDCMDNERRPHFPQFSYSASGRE
Outline: as §1

Full length Akt1 = molecular target: T3, Full length Akt1 (Homo sapiens, UniProt P31749); assay: In vitro Akt kinase enzymatic assay (HTRF), Akt1; type: biochemical; conditions: 0.4 nM Akt1, substrate solution with 5 mM ATP, 25° C. 1 hr
T3 construct: Full length Akt1 (cat #P2999); purchased PerkinElmer P2999
T3 sequence (P31749 whole entry): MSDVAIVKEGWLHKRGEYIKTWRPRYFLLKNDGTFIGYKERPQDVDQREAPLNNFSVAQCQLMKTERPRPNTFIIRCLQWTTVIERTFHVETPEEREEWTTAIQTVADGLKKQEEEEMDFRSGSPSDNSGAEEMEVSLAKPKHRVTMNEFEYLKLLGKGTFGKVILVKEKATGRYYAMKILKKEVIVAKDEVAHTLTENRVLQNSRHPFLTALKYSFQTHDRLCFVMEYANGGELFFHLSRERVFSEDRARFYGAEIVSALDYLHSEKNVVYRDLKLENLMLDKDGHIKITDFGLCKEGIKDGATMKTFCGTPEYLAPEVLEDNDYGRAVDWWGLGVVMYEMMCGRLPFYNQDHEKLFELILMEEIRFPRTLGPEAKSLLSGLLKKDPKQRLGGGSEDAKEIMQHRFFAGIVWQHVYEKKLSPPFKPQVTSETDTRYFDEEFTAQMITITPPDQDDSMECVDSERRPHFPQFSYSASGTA
Outline: as §1

Full length PKA = molecular target: T4, Full length PKA (Homo sapiens, UniProt P17612); assay: PKA in vitro enzymatic assay (HTRF); type: biochemical; conditions: 0.035 nM enzyme solution, substrate solution with 5 mM ATP, 25° C. 1 hr
T4 construct: Full length PKA (cat #P2912); purchased Invitrogen P2912
Outline: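 IC50 came from curve fitting of percent inhibition across an 11-point, 3-fold compound series, with HTRF read after EDTA quench and Tb-labelled p-S133 antibody detection. Enzyme (0.035 nM solution) and substrate (0.1 μM fluorescein-CREBtide solution containing 5 mM ATP) reacted for 1 h at 25°C. The buffer was HEPES 50 mM pH 7.8 with 10 mM MgCl2, 5 mM DTT and 0.005% Tween20.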

[2] = 2% fetal bovine serum, class symbols
[3] = given as a bound, final concentrations 1000 nM to 0.5 nM

T1 sequence (P31751 whole entry): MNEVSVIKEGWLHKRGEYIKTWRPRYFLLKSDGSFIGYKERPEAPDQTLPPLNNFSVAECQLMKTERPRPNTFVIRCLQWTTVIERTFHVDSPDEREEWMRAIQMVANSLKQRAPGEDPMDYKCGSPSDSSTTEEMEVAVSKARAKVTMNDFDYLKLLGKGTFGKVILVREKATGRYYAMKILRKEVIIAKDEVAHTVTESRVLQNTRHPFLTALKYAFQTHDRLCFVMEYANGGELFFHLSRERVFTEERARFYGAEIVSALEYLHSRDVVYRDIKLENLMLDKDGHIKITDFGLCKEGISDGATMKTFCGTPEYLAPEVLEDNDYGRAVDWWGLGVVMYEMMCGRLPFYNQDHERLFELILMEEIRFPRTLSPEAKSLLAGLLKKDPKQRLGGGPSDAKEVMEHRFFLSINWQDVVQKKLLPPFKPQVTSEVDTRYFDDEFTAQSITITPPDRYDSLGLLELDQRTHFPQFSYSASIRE

IC50 (Full length Akt2) [nM] | IC50 [1, 2] [nM] | IC50 (Full length Akt3) [nM] | IC50 (Full length Akt1) [nM] | IC50 (Full length PKA) [nM] | IC50 [1, 3] [nM] | SMILES
< 500 | < 500 | < 500 | < 500 | > 5000 | – | Cn1ncc(Br)c1-c1ccc2c(c1)CN([C@H](CN)Cc1ccccc1)C2=O [Example 57, 2-[(1S)-2-amino-1-benzyl-ethyl]-5-(4-bromo-1-methyl-1H-pyrazol-5-yl)isoindolin-1-one]
< 500 | < 500 | < 500 | < 500 | 500 to 5000 | – | C#Cc1cccc(C[C@@H](CN)N2Cc3cc(-c4c(Cl)cnn4C)ccc3C2=O)c1 [Example 89, 2-[(1S)-2-amino-1-(3-ethynylbenzyl)ethyl]-5-(4-chloro-1-methyl-1H-pyrazol-5-yl)isoindolin-1-one]
> 5000 | – | > 5000 | 500 to 5000 | > 5000 | > 1000 | Cn1nccc1-c1ccc2c(c1)CN([C@H](CN)Cc1cccc(-c3cccnc3)c1)C2=O [Example 86, 2-[(1S)-2-amino-1-(3-pyridin-3-ylbenzyl)ethyl]-5-(1-methyl-1H-pyrazol-5-yl)isoindolin-1-one]
< 500 | < 500 | < 500 | < 500 | 500 to 5000 | – | Cc1cnn(C)c1-c1cc2c(cn1)C(=O)N([C@H](CN)Cc1cc(F)cc(F)c1)C2 [Example 103, 2-[(1S)-2-amino-1-(3,5-difluoro-benzyl)ethyl]-6-(4-methyl-1-methyl-1H-pyrazol-5-yl)-1,2-dihydro-3H-pyrrolo[3,4-c]pyridin-3-one]
< 500 | < 500 | < 500 | < 500 | > 5000 | – | Cn1nccc1-c1ccc2c(c1)CN([C@H](CN)Cc1ccccc1)C2=O [Example 55, 2-[(1S)-2-amino-1-benzyl-ethyl]-5-(1-methyl-1H-pyrazol-5-yl)isoindolin-1-one]
< 500 | < 500 | < 500 | < 500 | 500 to 5000 | – | Cc1cnn(C)c1-c1ccc2c(c1)CN([C@H](CN)Cc1cc(F)cc(F)c1)C2=O [Example 42, 2-[(1S)-2-amino-1-(3,5-difluorobenzyl)ethyl]-5-(4-methyl-1-methyl-1H-pyrazol-5-yl)isoindolin-1-one]
< 500 | < 500 | 500 to 5000 | < 500 | 500 to 5000 | – | Cn1nccc1-c1ccc2c(c1)CN(C(CN)c1cccc(F)c1)C2=O (stereo not drawn) [Example 117, 2-[2-amino-1-(3-fluorophenyl)ethyl]-5-(1-methyl-1H-pyrazol-5-yl)isoindolin-1-one]
> 5000 | – | > 5000 | > 5000 | > 5000 | > 1000 | Cn1ncc(Cl)c1-c1ccc2c(c1)CN([C@H](CN)Cc1cccc(-c3ccncc3)c1)C2=O [Example 72, 2-[(1S)-2-amino-1-(3-pyridin-4-ylbenzyl)ethyl]-5-(4-chloro-1-methyl-1H-pyrazol-5-yl)isoindolin-1-one]
> 5000 | – | 500 to 5000 | 500 to 5000 | > 5000 | > 1000 | Cn1ncc(Cl)c1-c1ccc2c(c1)CN([C@H](CN)Cc1cccc(-c3cccnc3)c1)C2=O [Example 73, 2-[(1S)-2-amino-1-(3-pyridin-3-ylbenzyl)ethyl]-5-(4-chloro-1-methyl-1H-pyrazol-5-yl)isoindolin-1-one]
< 500 | < 500 | < 500 | < 500 | > 5000 | – | Cn1ncc(Cl)c1-c1cnc2c(c1)CN([C@H](CN)Cc1cccc(F)c1)C2=O [Example 90, 6-[(1S)-2-amino-1-(3-fluorobenzyl)ethyl]-3-(4-chloro-1-methyl-1H-pyrazol-5-yl)-5,6-dihydro-7H-pyrrolo[3,4-b]pyridin-7-one]
< 500 | < 500 | < 500 | < 500 | < 500 | – | Cn1nccc1-c1cc2c(cn1)C(=O)N([C@H](CN)CC1CCCCC1)C2 [Example 134, 2-[(1S)-2-amino-1-(cyclohexylmethyl)ethyl]-6-(1-methyl-1H-pyrazol-5-yl)-1,2-dihydro-3H-pyrrolo[3,4-c]pyridin-3-one]
< 500 | < 500 | < 500 | < 500 | 500 to 5000 | – | Cn1ncc(Cl)c1-c1ccc2c(c1)CN([C@H](CN)Cc1cccs1)C2=O [Example 67, 2-[(1S)-2-amino-1-(2-thienylmethyl)ethyl]-5-(4-chloro-1-methyl-1H-pyrazol-5-yl)isoindolin-1-one]
< 500 | < 500 | < 500 | < 500 | 500 to 5000 | – | Cn1ncc(Cl)c1-c1ccc2c(c1)CN([C@H](CN)Cc1cc(F)cc(F)c1)C2=O [Example 41, 2-[(1S)-2-amino-1-(3,5-difluorobenzyl)ethyl]-5-(4-chloro-1-methyl-1H-pyrazol-5-yl)isoindolin-1-one]
< 500 | < 500 | < 500 | < 500 | 500 to 5000 | – | Cn1nccc1-c1ccc2c(c1)CN([C@H](CN)Cc1cc(F)cc(F)c1)C2=O [Example 40, 2-[(1S)-2-amino-1-(3,5-difluorobenzyl)ethyl]-5-(1-methyl-1H-pyrazol-5-yl)isoindolin-1-one]
< 500 | < 500 | < 500 | < 500 | > 5000 | – | CCn1nccc1-c1ccc2c(c1)CN([C@H](CN)Cc1cccc(F)c1)C2=O [Example 127, 2-[(1S)-2-amino-1-(3-fluorobenzyl)ethyl]-5-(1-ethyl-1H-pyrazol-5-yl)isoindolin-1-one]
< 500 | < 500 | < 500 | < 500 | > 5000 | – | COCc1cnn(C)c1-c1ccc2c(c1)CN([C@H](CN)Cc1cccc(F)c1)C2=O [Example 4, 2-[(1S)-2-amino-1-(3-fluorobenzyl)ethyl]-5-(4-methoxymethyl-1-methyl-1H-pyrazol-5-yl)isoindolin-1-one]
< 500 | < 500 | < 500 | < 500 | > 5000 | – | Cn1ncc(Br)c1-c1cnc2c(c1)CN([C@H](CN)Cc1cccc(F)c1)C2=O [Example 91, 6-[(1S)-2-amino-1-(3-fluorobenzyl)ethyl]-3-(4-bromo-1-methyl-1H-pyrazol-5-yl)-5,6-dihydro-7H-pyrrolo[3,4-b]pyridin-7-one]
> 5000 | – | > 5000 | 500 to 5000 | > 5000 | > 1000 | Cn1nccc1-c1ccc2c(c1)CN([C@H](CN)Cc1cccc(-c3cncnc3)c1)C2=O [Example 87, 2-[(1S)-2-amino-1-(3-pyrimidin-5-ylbenzyl)ethyl]-5-(1-methyl-1H-pyrazol-5-yl)isoindolin-1-one]
500 to 5000 | 500 to 5000 | 500 to 5000 | < 500 | > 5000 | – | COCc1cnn(C)c1-c1ccc2c(c1)CN([C@H](CN)CC1CCCCC1)C2=O [Example 133, 2-[(1S)-2-amino-1-(cyclohexylmethyl)ethyl]-5-[4-(methoxymethyl)-1-methyl-1H-pyrazol-5-yl]isoindolin-1-one]

SMILES | IC50 (Full length Akt2) [nM] | IC50 [1, 2] [nM] | IC50 (Full length Akt3) [nM] | IC50 (Full length Akt1) [nM] | IC50 (Full length PKA) [nM] | IC50 [1, 3] [nM]
Cn1ncc(COC2CCC2)c1-c1ccc2c(c1)CN([C@H](CN)Cc1cc(F)cc(F)c1)C2=O [Example 47, 2-[(1S)-2-amino-1-(3,5-difluorobenzyl)ethyl]-5-[4-(cyclobutoxymethyl)-1-methyl-1H-pyrazol-5-yl]isoindolin-1-one] | < 500 | < 500 | < 500 | < 500 | 500 to 5000 | –
Cn1ncc(COC2CCC2)c1-c1cc2c(cn1)C(=O)N([C@H](CN)Cc1cccc(F)c1)C2 [Example 97, 2-[(1S)-2-amino-1-(3-fluorobenzyl)ethyl]-6-[4-(cyclobutoxymethyl)-1-methyl-1H-pyrazol-5-yl]-1,2-dihydro-3H-pyrrolo[3,4-c]pyridin-3-one] | < 500 | < 500 | < 500 | < 500 | > 5000 | –
